Data taken from publication PMC11148078, “Potent activity of polymyxin B is associated with long-lived super-stoichiometric accumulation mediated by weak-affinity binding to lipid A” (Nature Communications, 2024).
Entries after “also recorded” stand apart in the source; their conditions may differ. Like-named read-outs stand apart in the source and are kept apart here. Bridge positions count the residues as written; N and C are the ends. Square brackets hold non-standard residues; d marks the D form. Peptide text beside a SMILES is read from it. * marks the point of attachment. X1 = CC[C@H](C)CCCCC(=O)*; Dab = NCC[C@H](N)C(=O)O

Experiments:
[1] = test system: resistant-OMVs (E. coli PmrA^G53E); test: Single-cycle kinetic SPR binding to immobilized resistant-OMVs; details: serial doubling injections, C1 chip
Protocol: Polymyxin B was covalently attached to a C1 chip (Series S Sensor Chip C1, Cytiva) using an amine coupling kit (Cytiva). Cartoon in Fig. 1A created with BioRender (biorender.com). Briefly, equal amounts of reagents N-hydroxysuccinimide and 1-ethyl-3-(3-dimethylaminopropyl) carbodiimide hydrochloride were mixed as per manufacturer’s instructions and immediately added to the gold chip surface for 2 min, washed with distilled deionized water, and dried. Sufficient polymyxin B (1 mM in 1 M HEPES buffer, pH 8) was added to cover the chip surface, incubated at room temperature for 1 h, washed as before, and then incubated with 1 M ethanolamine hydrochloride-NaOH, pH 8.5, for 1 min. The chip surface was washed with water, dried as previously described, immediately loaded into a Biacore S200, and primed with running buffer (described below) to equilibrate the system. C1 chips were used for multiple runs and discarded upon removal from the Biacore S200.
SCK C1-chip SPR experiments were performed in running buffer (Dulbecco’s phosphate-buffered salt solution 1x without calcium or magnesium (Fisher Scientific), pH 7.4, with 0.0005% tween-80 (Sigma) passed through a 0.2 µm filter) unless otherwise indicated. Inclusion of tween-80 prevented loss of polymyxin to the plastics[34] (also see Supplementary Information Methods). For experiments with brevicidine, which was suspended in DMSO, 0.125% DMSO was included in the running buffer. OMVs were diluted from frozen stocks to approximately 20–30 µg/ml protein in the OMV buffer. Capture of OMVs was performed at a low flow rate ([…]) for 300 s over the test channel(s) followed by a 300 s stabilization period. All subsequent steps were at a flow rate of 40 µl/ml. For single cycle kinetics, two-fold dilutions were injected over the channel(s) loaded with OMVs and a reference channel without OMVs for 30 s contact and 480 s dissociation. […]

E. coli WT+rifampicin = test: Rifampicin potentiation / outer membrane permeability, wild-type E. coli; type: cell-based
Protocol: Bacterial strains and plasmids are listed in SI Table S5. LB growth media was prepared according to manufacturer’s instructions and supplemented with 0.2% arabinose and carbenicillin (50 μg/mL) for the strains containing pBAD24-mcr1 plasmid. Cultures were started by inoculating 3 ml LB with 1–2 colonies from fresh overnight plates and grown at 37 °C until in log phase. Modified minimal inhibitory concentration (MIC) assays were performed in 96-well round bottom polystyrene plates (Corning) with a final volume of 100 µl in LB supplemented with tween-80 at 0.0005%. […] Polymyxin B sulfate (TCI Co. Ltd), polymyxin B nonapeptide (PMBN) (Sigma), and brevicidine (Genentech) were diluted directly in the assay plates. Bacteria were diluted in LB with tween-80 0.0005% and added to a final OD600 of 0.0005. Growth was measured via OD600 on a SpectraMax M5 plate reader after overnight static growth at 37 °C with humidity.

Row | SMILES | SPR binding profile [1] | outer membrane permeabilization / rifampicin potentiation (E. coli WT+rifampicin) | MIC in presence of rifampicin (E. coli WT+rifampicin; rifampicin 1.56 µM, LB + 0.0005% tween-80, overnight 37 °C) | MIC in presence of rifampicin (E. coli WT+rifampicin)
1 | CC(C)C[C@@H]1NC(=O)[C@@H](Cc2ccccc2)NC(=O)[C@H](CCN)NC(=O)[C@@H](NC(=O)[C@H](CCN)NC(=O)[C@@H](N)[C@@H](C)O)CCNC(=O)[C@H]([C@@H](C)O)NC(=O)[C@H](CCN)NC(=O)[C@H](CCN)NC1=O [PMBN] (H-T[Dab][Dab][Dab][dF]L[Dab][Dab]T; lactam 3-C) | exhibited only weak, saw-tooth binding | still permeabilizes the outer membrane to rifampicin; also recorded: can still permeabilize the outer membrane | 78 nM | 
2 | CC[C@H](C)CCCCC(=O)N[C@@H](CCN)C(=O)N[C@H](C(=O)N[C@@H](CCN)C(=O)N[C@H]1CCNC(=O)[C@H]([C@@H](C)O)NC(=O)[C@H](CCN)NC(=O)[C@H](CCN)NC(=O)[C@H](CC(C)C)NC(=O)[C@@H](Cc2ccccc2)NC(=O)[C@H](CCN)NC1=O)[C@@H](C)O [Polymyxin B] (X1-[Dab]T[Dab][Dab][Dab][dF]L[Dab][Dab]T; lactam 4-C (inferred); N-terminus assumed) | exhibited only the weak, saw-tooth binding |  |  | <0.02 nM
